Laboratory results as given in patent US20060083830A1, “Polylysine-containing food additive and acidic adjuvant” (priority 2004, published 2006).
“And” between values parts separate entries of the source, which are not always exact repeats. Identical values can stand only once.

Tested on: Listeria monocytogenes
Assay: L. monocytogenes on cooked ground turkey balls blended with ε-polylysine, vacuum packaged, stored at 10° C., CFU determination
Assay type: cell-based
Conditions: for Log Reduction: vs control Group A
Procedure: Six groups of 20 g ground uncooked turkey balls were prepared, with 27 balls prepared per group. […] Groups B-F were blended with varying amounts of ε-polylysine (“ε-PL”). Final concentrations of ε-polylysine within the turkey balls were:
After preparation, all meatballs were placed on baking sheets and baked in a conventional oven at 350° F. for 20 minutes. After baking, the meatballs were packaged separately and stored at 4° C.
The mixture was further diluted 1:10,000 times with sterile saline to produce a suspension for use.
20 microliters of the Listeria monocytogenes suspension was inoculated onto the exterior of each turkey ball. Turkey balls were incubated at room temperature for 30 min post-inoculation to allow bacteria to attach. Turkey balls were individually vacuum packaged and stored at 10° C.
The microbiological assay was performed after 3 hours, 24 hours, 1 week, 2 weeks, 3 weeks, 4 weeks, 5 weeks, 7 weeks, and 8 weeks. After each designated time period had passed, three bags from each group of meat balls were unpacked, transferred to a stomacher bag along with 20 ml of sterile 0.1% peptone water. Each meatball was hand crushed and stomached at high speed for 2 minutes. […] The letter “{overscore (A)}” denotes average.

poly(imino(2-amino-1-oxo-1,6-hexanediyl)) [ε-PL]
CFU/g (1000 ppm ε-PL, after 1 week): 5.35E+06 CFU/g and 3.75E+06 CFU/g and 4.05E+06 CFU/g | average Log Value (1000 ppm ε-PL, after 1 week): 6.64 | average of CFU/g (1000 ppm ε-PL, after 1 week): 4.38E+06 CFU/g | Log Reduction (1000 ppm ε-PL, after 1 week): 1.64 | average Log Value (1000 ppm ε-PL, after 2 weeks): 7.61 | average of CFU/g (1000 ppm ε-PL, after 2 weeks): 4.09E+07 CFU/g | Log Reduction (1000 ppm ε-PL, after 2 weeks): 0.68 | average Log Value (1000 ppm ε-PL, after 3 weeks): 6.73 | average of CFU/g (1000 ppm ε-PL, after 3 weeks): 5.24E+06 CFU/g | Log Reduction (1000 ppm ε-PL, after 3 weeks): 1.66 | average Log Value (1000 ppm ε-PL, after 4 weeks): 7.73 | average of CFU/g (1000 ppm ε-PL, after 4 weeks): 5.42E+07 CFU/g | Log Reduction (1000 ppm ε-PL, after 4 weeks): 0.74 | average Log Value (1000 ppm ε-PL, after 5 weeks): 7.98 | average of CFU/g (1000 ppm ε-PL, after 5 weeks): 9.64E+07 CFU/g | Log Reduction (1000 ppm ε-PL, after 5 weeks): 0.44 | average Log Value (1000 ppm ε-PL, after 7 weeks): 7.80 | average of CFU/g (1000 ppm ε-PL, after 7 weeks): 6.33E+07 CFU/g | Log Reduction (1000 ppm ε-PL, after 7 weeks): 0.62 | average Log Value (1000 ppm ε-PL, after 8 weeks): 7.66 | average of CFU/g (1000 ppm ε-PL, after 8 weeks): 4.53E+07 CFU/g | Log Reduction (1000 ppm ε-PL, after 8 weeks): 0.68 | CFU/g (1000 ppm ε-PL, after 3 hours): 2.34E+02 CFU/g and 1.54E+02 CFU/g and 1.56E+02 CFU/g | average Log Value (1000 ppm ε-PL, after 3 hours): 2.26 | average of CFU/g (1000 ppm ε-PL, after 3 hours): 1.81E+02 CFU/g | Log Reduction (1000 ppm ε-PL, after 3 hours): 0.53 | average Log Value (1000 ppm ε-PL, after 24 hours): 3.25 | average of CFU/g (1000 ppm ε-PL, after 24 hours): 1.77E+03 CFU/g | Log Reduction (1000 ppm ε-PL, after 24 hours): >0.48 | average Log Value (2000 ppm ε-PL, after 1 week): 4.74 | average of CFU/g (2000 ppm ε-PL, after 1 week): 5.50E+04 CFU/g | Log Reduction (2000 ppm ε-PL, after 1 week): 3.54 | average Log Value (2000 ppm ε-PL, after 2 weeks): 4.98 | average of CFU/g (2000 ppm ε-PL, after 2 weeks): 9.57E+04 CFU/g | Log Reduction (2000 ppm ε-PL, after 2 weeks): 3.31 | average Log Value (2000 ppm ε-PL, after 3 weeks): 4.68 | average of CFU/g (2000 ppm ε-PL, after 3 weeks): 4.73E+04 CFU/g | Log Reduction (2000 ppm ε-PL, after 3 weeks): 3.72 | average Log Value (2000 ppm ε-PL, after 4 weeks): >6.44 | average of CFU/g (2000 ppm ε-PL, after 4 weeks): >2.76E+06 CFU/g | Log Reduction (2000 ppm ε-PL, after 4 weeks): <2.03 | average Log Value (2000 ppm ε-PL, after 5 weeks): 5.90 | average of CFU/g (2000 ppm ε-PL, after 5 weeks): 7.91E+05 CFU/g | Log Reduction (2000 ppm ε-PL, after 5 weeks): 2.53 | average Log Value (2000 ppm ε-PL, after 7 weeks): 6.66 | average of CFU/g (2000 ppm ε-PL, after 7 weeks): 4.53E+06 CFU/g | Log Reduction (2000 ppm ε-PL, after 7 weeks): 1.77 | average Log Value (2000 ppm ε-PL, after 8 weeks): 6.19 | average of CFU/g (2000 ppm ε-PL, after 8 weeks): 1.54E+06 CFU/g | Log Reduction (2000 ppm ε-PL, after 8 weeks): 2.15 | CFU/g (2000 ppm ε-PL, after 3 hours): 1.94E+02 CFU/g and 1.96E+02 CFU/g and 1.50E+02 CFU/g | average Log Value (2000 ppm ε-PL, after 3 hours): 2.26 | average of CFU/g (2000 ppm ε-PL, after 3 hours): 1.80E+02 CFU/g | Log Reduction (2000 ppm ε-PL, after 3 hours): 0.53 | CFU/g (2000 ppm ε-PL, after 24 hours): 1.98E+02 CFU/g and 2.64E+02 CFU/g and 2.14E+02 CFU/g | average Log Value (2000 ppm ε-PL, after 24 hours): 2.35 | average of CFU/g (2000 ppm ε-PL, after 24 hours): 2.25E+02 CFU/g | Log Reduction (2000 ppm ε-PL, after 24 hours): >1.37 | post-lethality effect (3000 ppm): > 1 log | average Log Value (3000 ppm ε-PL, after 1 week): 1.00 | average of CFU/g (3000 ppm ε-PL, after 1 week): 1.00E+01 CFU/g | Log Reduction (3000 ppm ε-PL, after 1 week): 7.28 | average Log Value (3000 ppm ε-PL, after 2 weeks): 1.44 | average of CFU/g (3000 ppm ε-PL, after 2 weeks): 2.73E+01 CFU/g | Log Reduction (3000 ppm ε-PL, after 2 weeks): 6.85 | average Log Value (3000 ppm ε-PL, after 3 weeks): <1.67 | average of CFU/g (3000 ppm ε-PL, after 3 weeks): <4.67E+01 CFU/g | Log Reduction (3000 ppm ε-PL, after 3 weeks): >6.72 | average Log Value (3000 ppm ε-PL, after 4 weeks): <0.43 | average of CFU/g (3000 ppm ε-PL, after 4 weeks): <2.67E+00 CFU/g | Log Reduction (3000 ppm ε-PL, after 4 weeks): >8.05 | CFU/g (3000 ppm ε-PL, after 5 weeks): <2.00E+00 CFU/g | average Log Value (3000 ppm ε-PL, after 5 weeks): <0.30 | average of CFU/g (3000 ppm ε-PL, after 5 weeks): <2.00E+00 CFU/g | Log Reduction (3000 ppm ε-PL, after 5 weeks): >8.12 | average Log Value (3000 ppm ε-PL, after 7 weeks): <1.08 | average of CFU/g (3000 ppm ε-PL, after 7 weeks): <1.20E+01 CFU/g | Log Reduction (3000 ppm ε-PL, after 7 weeks): >7.34 | CFU/g (3000 ppm ε-PL, after 8 weeks): <2.00E+00 CFU/g | average Log Value (3000 ppm ε-PL, after 8 weeks): <0.30 | average of CFU/g (3000 ppm ε-PL, after 8 weeks): <2.00E+00 CFU/g | Log Reduction (3000 ppm ε-PL, after 8 weeks): >8.03 | average Log Value (3000 ppm ε-PL, after 3 hours): 1.51 | average of CFU/g (3000 ppm ε-PL, after 3 hours): 3.20E+01 CFU/g | Log Reduction (3000 ppm ε-PL, after 3 hours): 1.28 | CFU/g (3000 ppm ε-PL, after 24 hours): 5.00E+01 CFU/g and 6.40E+01 CFU/g and 7.20E+01 CFU/g | average Log Value (3000 ppm ε-PL, after 24 hours): 1.79 | average of CFU/g (3000 ppm ε-PL, after 24 hours): 6.20E+01 CFU/g | Log Reduction (3000 ppm ε-PL, after 24 hours): >1.93 | average Log Value (4000 ppm ε-PL, after 1 week): <0.52 | average of CFU/g (4000 ppm ε-PL, after 1 week): <3.35E+00 CFU/g | Log Reduction (4000 ppm ε-PL, after 1 week): >7.76 | CFU/g (4000 ppm ε-PL, after 2 weeks): <2.00E+00 CFU/g | average Log Value (4000 ppm ε-PL, after 2 weeks): <0.30 | average of CFU/g (4000 ppm ε-PL, after 2 weeks): <2.00E+00 CFU/g | Log Reduction (4000 ppm ε-PL, after 2 weeks): >7.29 | CFU/g (4000 ppm ε-PL, after 3 weeks): <2.00E+00 CFU/g | average Log Value (4000 ppm ε-PL, after 3 weeks): <0.3 | average of CFU/g (4000 ppm ε-PL, after 3 weeks): <2.00E+00 CFU/g | Log Reduction (4000 ppm ε-PL, after 3 weeks): >8.09 | CFU/g (4000 ppm ε-PL, after 4 weeks): 2.00E+00 CFU/g and <2.00E+00 CFU/g | average Log Value (4000 ppm ε-PL, after 4 weeks): <0.30 | average of CFU/g (4000 ppm ε-PL, after 4 weeks): <2.00E+00 CFU/g | Log Reduction (4000 ppm ε-PL, after 4 weeks): >8.17 | CFU/g (4000 ppm ε-PL, after 5 weeks): <2.00E+00 CFU/g | average Log Value (4000 ppm ε-PL, after 5 weeks): <0.30 | average of CFU/g (4000 ppm ε-PL, after 5 weeks): <2.00E+00 CFU/g | Log Reduction (4000 ppm ε-PL, after 5 weeks): >8.12 | CFU/g (4000 ppm ε-PL, after 7 weeks): <2.00E+00 CFU/g | average Log Value (4000 ppm ε-PL, after 7 weeks): <0.30 | average of CFU/g (4000 ppm ε-PL, after 7 weeks): <2.00E+00 CFU/g | Log Reduction (4000 ppm ε-PL, after 7 weeks): >8.12 | CFU/g (4000 ppm ε-PL, after 8 weeks): <2.00E+00 CFU/g | average Log Value (4000 ppm ε-PL, after 8 weeks): <0.30 | average of CFU/g (4000 ppm ε-PL, after 8 weeks): <2.00E+00 CFU/g | Log Reduction (4000 ppm ε-PL, after 8 weeks): >8.03 | average Log Value (4000 ppm ε-PL, after 3 hours): <1.17 | average of CFU/g (4000 ppm ε-PL, after 3 hours): <1.47E+01 CFU/g | Log Reduction (4000 ppm ε-PL, after 3 hours): >1.62 | average Log Value (4000 ppm ε-PL, after 24 hours): 1.29 | average of CFU/g (4000 ppm ε-PL, after 24 hours): 1.93E+01 CFU/g | Log Reduction (4000 ppm ε-PL, after 24 hours): >2.44 | average Log Value (5000 ppm ε-PL, after 1 week): 1.95 | average of CFU/g (5000 ppm ε-PL, after 1 week): 8.87E+01 CFU/g | Log Reduction (5000 ppm ε-PL, after 1 week): 6.33 | average Log Value (5000 ppm ε-PL, after 2 weeks): <0.30 | average of CFU/g (5000 ppm ε-PL, after 2 weeks): <2.00E+00 CFU/g | Log Reduction (5000 ppm ε-PL, after 2 weeks): >7.99 | CFU/g (5000 ppm ε-PL, after 3 weeks): <2.00E+00 CFU/g | average Log Value (5000 ppm ε-PL, after 3 weeks): <0.30 | average of CFU/g (5000 ppm ε-PL, after 3 weeks): <2.00E+00 CFU/g | Log Reduction (5000 ppm ε-PL, after 3 weeks): >8.09 | average Log Value (5000 ppm ε-PL, after 4 weeks): <0.30 | average of CFU/g (5000 ppm ε-PL, after 4 weeks): <2.00E+00 CFU/g | Log Reduction (5000 ppm ε-PL, after 4 weeks): <8.17 | CFU/g (5000 ppm ε-PL, after 5 weeks): <2.00E+00 CFU/g | average Log Value (5000 ppm ε-PL, after 5 weeks): <0.30 | average of CFU/g (5000 ppm ε-PL, after 5 weeks): <2.00E+00 CFU/g | Log Reduction (5000 ppm ε-PL, after 5 weeks): >8.12 | CFU/g (5000 ppm ε-PL, after 7 weeks): <2.00E+00 CFU/g | average Log Value (5000 ppm ε-PL, after 7 weeks): <0.30 | average of CFU/g (5000 ppm ε-PL, after 7 weeks): <2.00E+00 CFU/g | Log Reduction (5000 ppm ε-PL, after 7 weeks): >8.12 | CFU/g (5000 ppm ε-PL, after 8 weeks): <2.00E+00 CFU/g | average Log Value (5000 ppm ε-PL, after 8 weeks): <0.30 | average of CFU/g (5000 ppm ε-PL, after 8 weeks): <2.00E+00 CFU/g | Log Reduction (5000 ppm ε-PL, after 8 weeks): >8.03 | average Log Value (5000 ppm ε-PL, after 3 hours): 0.60 | average of CFU/g (5000 ppm ε-PL, after 3 hours): 4.00E+00 CFU/g | Log Reduction (5000 ppm ε-PL, after 3 hours): 2.18 | average Log Value (5000 ppm ε-PL, after 24 hours): 0.73 | average of CFU/g (5000 ppm ε-PL, after 24 hours): 5.33E+00 CFU/g | Log Reduction (5000 ppm ε-PL, after 24 hours): >3.00 | outgrowth of Listeria (final concentration of 3000 ppm in ground turkey, eight week period, 10° C.): completely inhibited the outgrowth of Listeria
